According to US12077503B2, “Substituted cyclic amides and their use as herbicides” (FMC CORPORATION, priority 2015, dated 2024):

How the values were obtained:
Assay type in all cases: in vivo
corn (Zea mays) [1] = assay: Test G Post-Emergence Protocol; settings: Zea mays, post-emergence, 312 h; for plant injury at 15.625 g/ha: 15.625 g ai/ha, evaluated after 13 days (100=total damage to plant; 0=no damage to plant), read-out: Corn damage rating; for plant injury at 62.5 g/ha: 62.5 g ai/ha, read-out: Corn damage rating (100=total damage to plant; 0=no damage to plant); for plant injury at 62.5 g/ha / plant injury at 250 g/ha: evaluated after 13 days; for plant injury at 250 g/ha: 250 g ai/ha, read-out: damage to plant, Corn (100=total damage to plant; 0=no damage to plant)
How it was run: (§1)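 Sow in soil; grow 8 d (24/16 °C, 14 h light, 65% humidity); spray 15.625/62.5/250 g/ha in acetone:water 50:50 + 0.5% Tween 20; grow on, water twice daily; score damage 0–100 at 13 d.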

[2] = tested on: redroot pigweed (Amaranthus retroflexus); assay: Test G Post-Emergence Protocol; settings: Amaranthus retroflexus, post-emergence, 312 h; for pest or weed control at 15.625 g/ha: 15.625 g ai/ha, evaluated after 13 days (100=total damage to plant; 0=no damage to plant), read-out: Pigweed, Redroot damage rating; for pest or weed control at 62.5 g/ha: 62.5 g ai/ha, read-out: Pigweed, Redroot damage rating (100=total damage to plant; 0=no damage to plant); for pest or weed control at 62.5 g/ha / pest or weed control at 250 g/ha: evaluated after 13 days; for pest or weed control at 250 g/ha: 250 g ai/ha, read-out: damage to plant, Pigweed, Redroot (100=total damage to plant; 0=no damage to plant)
How it was run: as §1

[3] = tested on: ivy-leaved morning glory (Ipomoea hederacea); assay: Test G Post-Emergence Protocol; settings: Ipomoea, post-emergence, 312 h; for pest or weed control at 15.625 g/ha: 15.625 g ai/ha, evaluated after 13 days (100=total damage to plant; 0=no damage to plant), read-out: Morningglory, Ivy-leaved damage rating; for pest or weed control at 62.5 g/ha: 62.5 g ai/ha, read-out: Morningglory, Ivy-leaved damage rating (100=total damage to plant; 0=no damage to plant); for pest or weed control at 62.5 g/ha / pest or weed control at 250 g/ha: evaluated after 13 days; for pest or weed control at 250 g/ha: 250 g ai/ha, read-out: damage to plant, Morningglory, Ivy-leaved (100=total damage to plant; 0=no damage to plant)
How it was run: as §1

[4] = tested on: velvetleaf (Abutilon theophrasti); assay: Test G Post-Emergence Protocol; settings: Abutilon theophrasti, post-emergence, 312 h; for pest or weed control at 15.625 g/ha: 15.625 g ai/ha, evaluated after 13 days (100=total damage to plant; 0=no damage to plant), read-out: Velvetleaf damage rating; for pest or weed control at 62.5 g/ha: 62.5 g ai/ha, read-out: Velvetleaf damage rating (100=total damage to plant; 0=no damage to plant); for pest or weed control at 62.5 g/ha / pest or weed control at 250 g/ha: evaluated after 13 days; for pest or weed control at 250 g/ha: 250 g ai/ha, read-out: damage to plant, Velvetleaf (100=total damage to plant; 0=no damage to plant)
How it was run: as §1

[5] = tested on: giant foxtail (Setaria faberi); assay: Test G Post-Emergence Protocol; settings: Setaria faberi, post-emergence, 312 h; for pest or weed control at 15.625 g/ha: 15.625 g ai/ha, evaluated after 13 days (100=total damage to plant; 0=no damage to plant), read-out: Foxtail, Giant damage rating; for pest or weed control at 62.5 g/ha: 62.5 g ai/ha, read-out: Foxtail, Giant damage rating (100=total damage to plant; 0=no damage to plant); for pest or weed control at 62.5 g/ha / pest or weed control at 250 g/ha: evaluated after 13 days; for pest or weed control at 250 g/ha: 250 g ai/ha, read-out: damage to plant, Foxtail, Giant (100=total damage to plant; 0=no damage to plant)
How it was run: as §1

[6] = tested on: barnyardgrass (Echinochloa crus-galli); assay: Test G Post-Emergence Protocol; settings: Echinochloa crus-galli, post-emergence, 312 h; for pest or weed control at 15.625 g/ha: 15.625 g ai/ha, evaluated after 13 days (100=total damage to plant; 0=no damage to plant), read-out: Barnyardgrass damage rating; for pest or weed control at 62.5 g/ha: 62.5 g ai/ha, read-out: Barnyardgrass damage rating (100=total damage to plant; 0=no damage to plant); for pest or weed control at 62.5 g/ha / pest or weed control at 250 g/ha: evaluated after 13 days; for pest or weed control at 250 g/ha: 250 g ai/ha, read-out: damage to plant, Barnyardgrass (100=total damage to plant; 0=no damage to plant)
How it was run: as §1

corn (Zea mays) [7] = assay: Test G Pre-Emergence Protocol; settings: Zea mays, pre-emergence, 312 h, evaluated after 13 days; for plant injury at 15.625 g/ha: 15.625 g ai/ha; for plant injury at 15.625 g/ha / plant injury at 250 g/ha: read-out: Corn damage rating (100=total damage to plant; 0=no damage to plant); for plant injury at 62.5 g/ha: 62.5 g ai/ha, 100=total damage to plant, 0=no damage to plant, read-out: plant damage rating, Corn; for plant injury at 250 g/ha: 250 g ai/ha
How it was run: (§2)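 Pre-emergence spray, 15.625/62.5/250 g/ha, vehicle acetone:water 50:50 + 0.5% Tween 20, applied 1 d after sowing. Glasshouse 24/16° C, 14 h light, 65% RH, watered twice daily. Visual damage rating at 13 d, 0–100 scale.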

[8] = tested on: redroot pigweed (Amaranthus retroflexus); assay: Test G Pre-Emergence Protocol; settings: Amaranthus retroflexus, pre-emergence, 312 h, evaluated after 13 days; for pest or weed control at 15.625 g/ha: 15.625 g ai/ha; for pest or weed control at 15.625 g/ha / pest or weed control at 250 g/ha: read-out: Pigweed, Redroot damage rating (100=total damage to plant; 0=no damage to plant); for pest or weed control at 62.5 g/ha: 62.5 g ai/ha, 100=total damage to plant, 0=no damage to plant, read-out: plant damage rating, Pigweed, Redroot; for pest or weed control at 250 g/ha: 250 g ai/ha
How it was run: as §2

[9] = tested on: ivy-leaved morning glory (Ipomoea hederacea); assay: Test G Pre-Emergence Protocol; settings: Ipomoea, pre-emergence, 312 h, evaluated after 13 days; for pest or weed control at 15.625 g/ha: 15.625 g ai/ha, read-out: Morning-glory, Ivy-leaved damage rating (100=total damage to plant; 0=no damage to plant); for pest or weed control at 250 g/ha: 250 g ai/ha, read-out: Morningglory, Ivy-leaved damage rating (100=total damage to plant; 0=no damage to plant)
How it was run: as §2

[10] = tested on: velvetleaf (Abutilon theophrasti); assay: Test G Pre-Emergence Protocol; settings: Abutilon theophrasti, pre-emergence, 312 h, evaluated after 13 days; for pest or weed control at 15.625 g/ha: 15.625 g ai/ha; for pest or weed control at 15.625 g/ha / pest or weed control at 250 g/ha: read-out: Velvetleaf damage rating (100=total damage to plant; 0=no damage to plant); for pest or weed control at 62.5 g/ha: 62.5 g ai/ha, 100=total damage to plant, 0=no damage to plant, read-out: plant damage rating, Velvetleaf; for pest or weed control at 250 g/ha: 250 g ai/ha
How it was run: as §2

[11] = tested on: giant foxtail (Setaria faberi); assay: Test G Pre-Emergence Protocol; settings: Setaria faberi, pre-emergence, 312 h, evaluated after 13 days; for pest or weed control at 15.625 g/ha: 15.625 g ai/ha; for pest or weed control at 15.625 g/ha / pest or weed control at 250 g/ha: read-out: Foxtail, Giant damage rating (100=total damage to plant; 0=no damage to plant); for pest or weed control at 62.5 g/ha: 62.5 g ai/ha, 100=total damage to plant, 0=no damage to plant, read-out: plant damage rating, Foxtail, Giant; for pest or weed control at 250 g/ha: 250 g ai/ha
How it was run: as §2

[12] = tested on: barnyardgrass (Echinochloa crus-galli); assay: Test G Pre-Emergence Protocol; settings: Echinochloa crus-galli, pre-emergence, 312 h, evaluated after 13 days; for pest or weed control at 15.625 g/ha: 15.625 g ai/ha, read-out: Barnyard grass damage rating (100=total damage to plant; 0=no damage to plant); for pest or weed control at 62.5 g/ha: 62.5 g ai/ha, 100=total damage to plant, 0=no damage to plant, read-out: plant damage rating, Barnyardgrass; for pest or weed control at 250 g/ha: 250 g ai/ha, read-out: Barnyardgrass damage rating (100=total damage to plant; 0=no damage to plant)
How it was run: as §2

Work on `Cc1c(C#N)cccc1NC(=O)[C@H]1C(=O)N(C)C[C@@H]1c1ccc(C(F)(F)F)cc1` (racemic) [Compound 1444] yielded a plant injury at 15.625 g/ha (corn (Zea mays) [1]) of 10%, a plant injury at 62.5 g/ha (corn (Zea mays) [1]) of 10% and a plant injury at 250 g/ha (corn (Zea mays) [1]) of 10%. The pest or weed control at 15.625 g/ha [2] was 10%, the pest or weed control at 62.5 g/ha [2] was 10% and the pest or weed control at 250 g/ha [2] was 20%. For the same molecule, the pest or weed control at 15.625 g/ha [3] was 0%, the pest or weed control at 62.5 g/ha [3] was 10% and the pest or weed control at 250 g/ha [3] was 10%. The pest or weed control at 15.625 g/ha [4] was 0%, the pest or weed control at 62.5 g/ha [4] was 0% and the pest or weed control at 250 g/ha [4] was 0%. For the same molecule, the pest or weed control at 15.625 g/ha [5] was 0%, the pest or weed control at 62.5 g/ha [5] was 60% and the pest or weed control at 250 g/ha [5] was 60%. For the same molecule, the pest or weed control at 15.625 g/ha [6] was 0%, the pest or weed control at 62.5 g/ha [6] was 10% and the pest or weed control at 250 g/ha [6] was 20%. It also gave a plant injury at 15.625 g/ha (corn (Zea mays) [7]) of 0%, a plant injury at 62.5 g/ha (corn (Zea mays) [7]) of 0% and a plant injury at 250 g/ha (corn (Zea mays) [7]) of 50%. For the same molecule, the pest or weed control at 15.625 g/ha [8] was 0%, the pest or weed control at 62.5 g/ha [8] was 40% and the pest or weed control at 250 g/ha [8] was 50%. The pest or weed control at 15.625 g/ha [9] was 10%, the pest or weed control at 62.5 g/ha ([9]; 62.5 g ai/ha, 100=total damage to plant, 0=no damage to plant, read-out: plant damage rating, Morningglory, Ivy-leaved) was 0% and the pest or weed control at 250 g/ha [9] was 40%. For the same molecule, the pest or weed control at 15.625 g/ha [10] was 0%, the pest or weed control at 62.5 g/ha [10] was 20% and the pest or weed control at 250 g/ha [10] was 20%. The pest or weed control at 15.625 g/ha [11] was 50%, the pest or weed control at 62.5 g/ha [11] was 80% and the pest or weed control at 250 g/ha [11] was 80%. For the same molecule, the pest or weed control at 15.625 g/ha [12] was 10%, the pest or weed control at 62.5 g/ha [12] was 30% and the pest or weed control at 250 g/ha [12] was 60%.

Molecule `CN1C[C@H](c2ccc(F)c(OCC(F)(F)F)c2)[C@@H](C(=O)Nc2ccccc2F)C1=O` (racemic) [Compound 1456] has a plant injury at 15.625 g/ha (corn (Zea mays) [1]) of 10%, a plant injury at 62.5 g/ha (corn (Zea mays) [1]) of 20% and a plant injury at 250 g/ha (corn (Zea mays) [1]) of 60%. The pest or weed control at 15.625 g/ha [2] was 0%, the pest or weed control at 62.5 g/ha [2] was 30% and the pest or weed control at 250 g/ha [2] was 40%. It also gave a pest or weed control at 15.625 g/ha [3] of 30%, a pest or weed control at 62.5 g/ha [3] of 30% and a pest or weed control at 250 g/ha [3] of 20%. It also gave a pest or weed control at 15.625 g/ha [4] of 0%, a pest or weed control at 62.5 g/ha [4] of 20% and a pest or weed control at 250 g/ha [4] of 20%. The pest or weed control at 15.625 g/ha [5] was 50%, the pest or weed control at 62.5 g/ha [5] was 60% and the pest or weed control at 250 g/ha [5] was 70%. It also gave a pest or weed control at 15.625 g/ha [6] of 10%, a pest or weed control at 62.5 g/ha [6] of 10% and a pest or weed control at 250 g/ha [6] of 20%. It also gave a plant injury at 15.625 g/ha (corn (Zea mays) [7]) of 0%, a plant injury at 62.5 g/ha (corn (Zea mays) [7]) of 0% and a plant injury at 250 g/ha (corn (Zea mays) [7]) of 40%. It also gave a pest or weed control at 15.625 g/ha [8] of 0%, a pest or weed control at 62.5 g/ha [8] of 0% and a pest or weed control at 250 g/ha [8] of 90%. For the same molecule, the pest or weed control at 15.625 g/ha [9] was 0%, the pest or weed control at 250 g/ha [9] was 40% and the pest or weed control at 15.625 g/ha [10] was 0%. The pest or weed control at 62.5 g/ha [10] was 0%, the pest or weed control at 250 g/ha [10] was 40% and the pest or weed control at 15.625 g/ha [11] was 60%. It also gave a pest or weed control at 62.5 g/ha [11] of 80%, a pest or weed control at 250 g/ha [11] of 90% and a pest or weed control at 15.625 g/ha [12] of 20%. The pest or weed control at 62.5 g/ha [12] was 60% and the pest or weed control at 250 g/ha [12] was 80%.
